Assays:
barnyardgrass [1] = assay: Test A pre-/postemergence herbicide test; format: in vivo, Echinochloa crus-galli
Summary of the method: (§1)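 Both application timings were run together: directed soil spray over freshly planted seeds in sandy loam, and runoff spray onto 2–10 cm seedlings. Evaluation after ~10 days in greenhouse used a 0–100 visual scale versus untreated controls.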

large crabgrass [2] = assay: Test A pre-/postemergence herbicide test; format: in vivo, Digitaria sanguinalis
Summary of the method: as §1

giant foxtail [3] = assay: Test A pre-/postemergence herbicide test; format: in vivo, Setaria faberi
Summary of the method: as §1

morningglory [4] = assay: Test A pre-/postemergence herbicide test; format: in vivo, Ipomoea spp.
Summary of the method: as §1

redroot pigweed = assay: Test A pre-/postemergence herbicide test; format: in vivo, Amaranthus retroflexus
Summary of the method: as §1

velvetleaf [5] = assay: Test A pre-/postemergence herbicide test; format: in vivo, Abutilon theophrasti
Summary of the method: as §1

barnyardgrass [6] = assay: Test B pre-/postemergence herbicide test; format: in vivo, Echinochloa crus-galli; details: for Barnyardgrass plant response rating: postemergence
Summary of the method: (§2)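 Herbicidal effect was judged by eye on a 0–100 scale after plants stood 13 to 15 days in the greenhouse following pre- or postemergence treatment with surfactant-containing formulations.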

Surinam grass = assay: Test B pre-/postemergence herbicide test; format: in vivo, Urochloa decumbens; details: for Surinam Grass plant response rating: postemergence
Summary of the method: (§3)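 Test chemicals in a non-phytotoxic solvent mixture with surfactant were applied preemergence to seeded species and postemergence to plants 2-18 cm tall (1- to 4-leaf stage); rice and barnyardgrass were also tested in a flooded paddy at the 2-leaf stage. Visual rating versus controls after 13-15 days in greenhouse, scale 0 (no effect) to 100 (complete control).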

cocklebur = assay: Test B pre-/postemergence herbicide test; format: in vivo, Xanthium strumarium; details: for Cocklebur plant response rating: postemergence
Summary of the method: as §2

corn = assay: Test B pre-/postemergence herbicide test; format: in vivo, Zea mays; details: for Corn plant response rating: postemergence
Summary of the method: as §3

large crabgrass [7] = assay: Test B pre-/postemergence herbicide test; format: in vivo, Digitaria sanguinalis; details: for Crabgrass, Large plant response rating: postemergence
Summary of the method: as §3

giant foxtail [8] = assay: Test B pre-/postemergence herbicide test; format: in vivo, Setaria faberi; details: for Foxtail, Giant plant response rating: postemergence
Summary of the method: as §3

lambsquarters = assay: Test B pre-/postemergence herbicide test; format: in vivo, Chenopodium album; details: for Lambsquarters plant response rating: postemergence
Summary of the method: as §3

morningglory [9] = assay: Test B pre-/postemergence herbicide test; format: in vivo, Ipomoea coccinea; details: for Morningglory plant response rating: postemergence
Summary of the method: as §2

pigweed = assay: Test B pre-/postemergence herbicide test; format: in vivo, Amaranthus retroflexus; details: for Pigweed plant response rating: postemergence
Summary of the method: as §3

velvetleaf [10] = assay: Test B pre-/postemergence herbicide test; format: in vivo, Abutilon theophrasti; details: for Velvetleaf plant response rating: postemergence
Summary of the method: as §3

blackgrass = assay: Test B postemergence herbicide test; format: in vivo, Alopecurus myosuroides; details: postemergence
Summary of the method: (§4)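 Treated at 2-leaf (paddy) or 1–4-leaf, 2–18 cm (postemergence); greenhouse 13–15 d; visual score vs control, 0 none to 100 complete control; dash = not tested.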

wheat = assay: Test B postemergence herbicide test; format: in vivo, Triticum aestivum; set-up: key to Wheat plant response rating: 0 = no effect, 100 = complete control; details: postemergence
Summary of the method: as §4

wild oat = assay: Test B postemergence herbicide test; format: in vivo, Avena fatua; details: postemergence
Summary of the method: as §4

rice = assay: Test B flooded paddy test; format: in vivo, Oryza sativa; details: 1000 g ai/ha, scale 0 to 100 (0 no effect, 100 complete control)
Summary of the method: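 Paddy species grown to the 2-leaf stage under flooding; blackgrass sprayed postemergence at 2–18 cm (1- to 4-leaf stage). Plants kept in a greenhouse for 13 to 15 days, then visually rated against controls on 0 (no effect) to 100 (complete control).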

[11] = system: small flower umbrella sedge; assay: Test B flooded paddy test; format: in vivo, Cyperus difformis; details: 1000 g ai/ha, scale 0 to 100 (0 no effect, 100 complete control)
Summary of the method: as §4

ducksalad = assay: Test B flooded paddy test; format: in vivo, Heteranthera limosa; details: 1000 g ai/ha, scale 0 to 100 (0 no effect, 100 complete control)
Summary of the method: as §4

barnyardgrass [12] = assay: Test B flooded paddy test; format: in vivo, Echinochloa crus-galli; details: 1000 g ai/ha, scale 0 to 100 (0 no effect, 100 complete control)
Summary of the method: as §4

[13] = Postemergence, 500 g ai/ha, 0 to 100 scale, 0 no effect, 100 complete control
[14] = Postemergence, 2000 g ai/ha, 0 to 100 scale, 0 no effect, 100 complete control
[15] = Preemergence, 2000 g ai/ha, visual rating, 0 to 100 scale (0 no effect, 100 complete control)
[16] = preemergence, 500 g ai/ha, visual injury, 0 to 100 scale (0 no effect, 100 complete control)
[17] = 125 g ai/ha, 0 is no effect, 100 is complete control, preemergence
[18] = 125 g ai/ha, visual rating, scale 0 (no effect) to 100 (complete control)
[19] = 500 g ai/ha, visual rating, 0 = no effect, 100 = complete control, preemergence
[20] = 500 g ai/ha, scale 0 to 100, 0 is no effect, 100 is complete control

How did the “Barnyardgrass plant response rating” value (barnyardgrass [1]; [13]) turn out when `CCc1nn(C2CCCC2)nc1C(=O)Nc1cccc(C(=O)N(C)C)c1` [Compound 355] was run?
The value was 40.

And the “Plant response rating, Barnyardgrass” value (barnyardgrass [1]; [14])?
Its value is 75.

What about the “Barnyardgrass plant response rating” value (barnyardgrass [1]; [15]) of the same molecule?
Its value is 80.

What about the “Barnyardgrass plant response rating” value (barnyardgrass [1]; [16]) of the same molecule?
The value was 50.

And the “Crabgrass, Large plant response rating” value (large crabgrass [2]; [13])?
Its value is 10.

And the “Plant response rating, Crabgrass, Large” value (large crabgrass [2]; [14])?
Its value is 30.

What about the “Crabgrass, Large plant response rating” value (large crabgrass [2]; [15]) of the same molecule?
The value was 50.

And the “Crabgrass, Large plant response rating” value (large crabgrass [2]; [16])?
The value was 20.

What about the “Foxtail, Giant plant response rating” value (giant foxtail [3]; [13]) of the same molecule?
Its value is 10.

What about the “Plant response rating, Foxtail, Giant” value (giant foxtail [3]; [14]) of the same molecule?
Its value is 45.

And the “Foxtail, Giant plant response rating” value (giant foxtail [3]; [15])?
The value was 60.

What about the “Foxtail, Giant plant response rating” value (giant foxtail [3]; [16]) of the same molecule?
The value was 20.

And the “Morningglory plant response rating” value (morningglory [4]; [13])?
Its value is 15.

And the “Plant response rating, Morningglory” value (morningglory [4]; [14])?
The value was 75.

What about the “Morningglory plant response rating” value (morningglory [4]; [15]) of the same molecule?
The value was 40.

What about the “Morningglory plant response rating” value (morningglory [4]; [16]) of the same molecule?
Its value is 10.

What about the “Pigweed plant response rating” value (redroot pigweed; [13]) of the same molecule?
The value was 40.

And the “Plant response rating, Pigweed” value (redroot pigweed; [14])?
Its value is 90.

And the “Pigweed plant response rating” value (redroot pigweed; [15])?
The value was 50.

And the “Pigweed plant response rating” value (redroot pigweed; [16])?
The value was 10.

And the “Velvetleaf plant response rating” value (velvetleaf [5]; [13])?
Its value is 15.

And the “Plant response rating, Velvetleaf” value (velvetleaf [5]; [14])?
Its value is 65.

What about the “Velvetleaf plant response rating” value (velvetleaf [5]; [15]) of the same molecule?
The value was 55.

And the “Velvetleaf plant response rating” value (velvetleaf [5]; [16])?
The value was 25.

What about the “Plant response rating (0 to 100 scale), Barnyardgrass” value (barnyardgrass [6]; [17]) of the same molecule?
The value was 70.

And the “Barnyardgrass plant response rating” value (barnyardgrass [6]; [18])?
The value was 0.

And the “Plant response rating, Barnyardgrass” value (barnyardgrass [6]; [19])?
Its value is 90.

What about the “Barnyardgrass plant response rating” value (barnyardgrass [6]; [20]) of the same molecule?
The value was 10.

And the “Plant response rating (0 to 100 scale), Surinam Grass” value (Surinam grass; [17])?
Its value is 40.

What about the “Surinam Grass plant response rating” value (Surinam grass; [18]) of the same molecule?
The value was 10.

What about the “Plant response rating, Surinam Grass” value (Surinam grass; [19]) of the same molecule?
Its value is 80.

And the “Surinam Grass plant response rating” value (Surinam grass; [20])?
Its value is 20.

What about the “Plant response rating (0 to 100 scale), Cocklebur” value (cocklebur; [17]) of the same molecule?
The value was 0.

What about the “Cocklebur plant response rating” value (cocklebur; [18]) of the same molecule?
The value was 0.

And the “Plant response rating, Cocklebur” value (cocklebur; [19])?
Its value is 10.

And the “Cocklebur plant response rating” value (cocklebur; [20])?
The value was 10.

What about the “Plant response rating (0 to 100 scale), Corn” value (corn; [17]) of the same molecule?
The value was 20.

What about the “Corn plant response rating” value (corn; [18]) of the same molecule?
The value was 0.

And the “Plant response rating, Corn” value (corn; [19])?
Its value is 60.

What about the “Corn plant response rating” value (corn; [20]) of the same molecule?
The value was 0.

What about the “Plant response rating (0 to 100 scale), Crabgrass, Large” value (large crabgrass [7]; [17]) of the same molecule?
Its value is 70.

What about the “Crabgrass, Large plant response rating” value (large crabgrass [7]; [18]) of the same molecule?
Its value is 10.

And the “Plant response rating, Crabgrass, Large” value (large crabgrass [7]; [19])?
The value was 100.

And the “Crabgrass, Large plant response rating” value (large crabgrass [7]; [20])?
Its value is 10.

What about the “Plant response rating (0 to 100 scale), Foxtail, Giant” value (giant foxtail [8]; [17]) of the same molecule?
Its value is 10.

What about the “Foxtail, Giant plant response rating” value (giant foxtail [8]; [18]) of the same molecule?
The value was 20.

What about the “Plant response rating, Foxtail, Giant” value (giant foxtail [8]; [19]) of the same molecule?
Its value is 90.

What about the “Foxtail, Giant plant response rating” value (giant foxtail [8]; [20]) of the same molecule?
The value was 30.

What about the “Plant response rating (0 to 100 scale), Lambsquarters” value (lambsquarters; [17]) of the same molecule?
Its value is 80.

And the “Lambsquarters plant response rating” value (lambsquarters; [18])?
Its value is 10.

And the “Plant response rating, Lambsquarters” value (lambsquarters; [19])?
Its value is 100.

And the “Lambsquarters plant response rating” value (lambsquarters; [20])?
Its value is 70.

What about the “Plant response rating (0 to 100 scale), Morningglory” value (morningglory [9]; [17]) of the same molecule?
The value was 10.

And the “Morningglory plant response rating” value (morningglory [9]; [18])?
Its value is 10.

And the “Plant response rating, Morningglory” value (morningglory [9]; [19])?
The value was 10.

What about the “Morningglory plant response rating” value (morningglory [9]; [20]) of the same molecule?
Its value is 40.

And the “Plant response rating (0 to 100 scale), Pigweed” value (pigweed; [17])?
The value was 50.

And the “Pigweed plant response rating” value (pigweed; [18])?
The value was 20.

And the “Plant response rating, Pigweed” value (pigweed; [19])?
The value was 100.

What about the “Pigweed plant response rating” value (pigweed; [20]) of the same molecule?
The value was 50.

And the “Plant response rating (0 to 100 scale), Velvetleaf” value (velvetleaf [10]; [17])?
The value was 0.

And the “Velvetleaf plant response rating” value (velvetleaf [10]; [18])?
The value was 30.

And the “Velvetleaf plant response rating” value (velvetleaf [10]; [20])?
Its value is 50.

And the “Blackgrass plant response rating” value (blackgrass; [18])?
Its value is 0.

What about the “Blackgrass plant response rating” value (blackgrass; [20]) of the same molecule?
The value was 20.

What about the “Wheat plant response rating” value (wheat; [18]) of the same molecule?
Its value is 0.

And the “Wheat plant response rating” value (wheat; [20])?
Its value is 20.

What about the “Oat, Wild plant response rating” value (wild oat; [18]) of the same molecule?
The value was 0.

What about the “Oat, Wild plant response rating” value (wild oat; [20]) of the same molecule?
Its value is 30.

And the “Rice plant response rating” value (rice)?
The value was 50.

And the “Sedge, Umbrella plant response rating” value [11]?
Its value is 70.

What about the “Ducksalad plant response rating” value (ducksalad) of the same molecule?
The value was 70.

What about the “Barnyardgrass plant response rating” value (barnyardgrass [12]) of the same molecule?
The value was 50.
